US7776873B2, “Method for treating damage to gastric mucosa” (Yuhan Corporation, priority 2005, dated 2010)

System: indomethacin-induced gastric mucosal lesions
Test: Preventive effect on NSAID-induced gastropathy
Assay type: in vivo, Sprague Dawley male rats
Details: rats, oro-gastric pretreatment (revaprazan 5, 10 mg/kg; rebamipide 30 mg/kg; omeprazole 5 mg/kg) prior to indomethacin 40 mg/kg for 12 hrs, FIG. 8
Description: Six-week old specific-pathogen-free (SPF) Sprague Dawley male rats (Charles River, Tokyo, Japan) were used for experiments. The rats were fed a sterilized commercial pellet diet (Biogenomics Co., Seoul, Korea), given sterile water ad libitum, and housed in air-conditioned biohazard room with a 12-h light:12-h dark cycle. The rats were food-deprived 24 hours, and then administered with 5, 10 mg/kg revaprazan, 30 mg/kg rebamipide and 5 mg/kg omeprazole suspended in 0.5% CMC (carboxymethylcellulose) via oro-gastric tube prior to exposure to indomethacin (40 mg/kg for 12 hrs). Phosphate-buffered saline was perfused into the gastric lumen of the rats to swell the stomachs. Then, the stomachs were opened by an incision along the greater curvature, and the total area of the gastric mucosal lesions was calculated to obtain the average size of the lesions.

Structure (SMILES): Cc1nc(Nc2ccc(F)cc2)nc(N2CCc3ccccc3C2C)c1C (stereo not shown) [revaprazan, 5,6-dimethyl-2-(4-fluorophenylamino)-4-(1-methyl-1,2,3,4-tetrahydroisoquinolin-2-yl)pyrimidine]
- hemorrhagic gastric mucosal lesions after pretreatment: little hemorrhagic lesions are observed
